What all share (type): biochemical
Common to all, as to details: 10 μM compound; NA = not active

One experiment addresses His tagged ERK2 (Homo sapiens, UniProt P28482). Briefly: Extracellular signal Regulated Kinase 2 inhibition assay (ERK2), radioactivity-based. How it is done:
Inhibition of Extracellular Signal Regulated Kinase 2 (ERK 2) Activity
(§1) The ERK2 kinase activity assay utilizes a radioactivity-based format in a 96-well PCR plate with radioactive readout. The ERK2 activity was assayed in a 25 μL assay mixture containing 25 mM HEPES (pH 7.0), 250 μM ATP, […], 1 mM DTT, 2% DMSO, 150 ng/mL Myelin Basic Protein (MBP, Sigma M-1891), and 13.6 ng/mL His tagged ERK2 (specific activity=38.1 nmol/min*mg). Compounds were screened for inhibition of the ERK2 kinase activity at a concentration of 10 μM. The kinase reaction was allowed to proceed at 37° C. for 30 minutes, then reaction was stopped by the addition of 5 μL of 0.5M EDTA (pH 8). 15 μL of each solution were then spotted onto the corresponding square of a filtermat (8×12 glassfibre mat 90×120 mm. PE-Wallac 1450–421). The filtermat was allowed to dry and washed once with 10% TCA, 2% PPA, 500 mM NaCl each for 30 minutes at rt. Two further washings in 10% TCA and 2% PPA for 30 minutes were performed, then a final 30 minute wash in 99% EtOH at rt was done and the filtermat was air dried. The dry filtermat was then placed in a sample bag with a Meltilex sheet (Melt-on scintillator sheets […], PE-Wallac 1450–441 for filtermat A) over the filtermat. The bag was trimmed to fit into the microplate heatsealer (PE-Wallac 1495–021). The heatsealer is used to melt the Meltilex on the filtermat. The bag containing the filtermat and the melted Meltilex was then placed into a filter cassette and counted using the Microbeta Jet Scintillation and Luminescence Counter PE-Wallac 1450.

Experiment [1] has as its target T1, PKA (catalytic subunit, bovine heart) (Bos taurus, UniProt P00517).
T1 construct: PKA (catalytic subunit, bovine heart, Calbiochem 539486); purchased Calbiochem 539486; host or cells: bovine heart (tissue-derived)
Nature of the experiment: Protein Kinase A inhibition assay (PKA), radioactivity-based. How it is done:
as §1
Inhibition of Protein Kinase A Activity
The PKA kinase activity assay utilizes a radioactivity-based format in a 96-well PCR plate with radioactive readout. The PKA activity was assayed in a 25 μL assay mixture containing 25 mM HEPES (pH 7.0), 250 μM ATP, 10 mM MgCl2, 1 mM DTT, 1 mM EBTA (pH 8), 2% DMSO, 250 ng/mL Histone H2B (Roche 223 514), and 2 ng/mL PKA (catalytic subunit, bovine heart, Calbiochem 539486, specific activity=1170 μmol/min*μg). Compounds were screened for inhibition of the PKA kinase activity at a concentration of 10 μM. The kinase reaction was allowed to proceed at 37° C. for 30 minutes, then the reaction was stopped by addition of 5 μL of 0.5M EDTA (pH 8). The remainder of the protocol is identical to the one reported for ERK2.

In the next experiment the test system is PKC (rat brain). Briefly: Protein Kinase C inhibition assay (PKC), radioactivity-based. As for the experimental part: as §1
Inhibition of Protein Kinase C Activity
The PKA kinase activity assay utilizes a radioactivity-based format in a 96-well PCR plate with radioactive readout. The PKA activity was assayed in a 25 μL assay mixture containing 25 mM HEPES (pH 7.0), 250 μM ATP, 10 mM MgCl2, 1 mM DTT, 1 mM EDTA (pH 8), 2 mM CaCl2, 2% DMSO, 250 ng/mL Histone H1 (Roche 1 004 875), and 165 ng/mL PKC (rat brain, Calbiochem 539494, specific activity=1600 nmol/min*mg), Compounds were screened for inhibition of the PKC kinase activity at a concentration of 10 μM. The kinase reaction was allowed to proceed at 37° C. for 30 minutes, then the reaction was stopped by addition of 5 μL of 0.5M EDTA (pH 8). The remainder of the protocol is identical to the one reported for ERK2.

The target in another experiment is T2, GSK3β (Homo sapiens, UniProt P49841).
T2 construct: purchased Upstate Discovery
T2 sequence (P49841 whole entry, species assumed): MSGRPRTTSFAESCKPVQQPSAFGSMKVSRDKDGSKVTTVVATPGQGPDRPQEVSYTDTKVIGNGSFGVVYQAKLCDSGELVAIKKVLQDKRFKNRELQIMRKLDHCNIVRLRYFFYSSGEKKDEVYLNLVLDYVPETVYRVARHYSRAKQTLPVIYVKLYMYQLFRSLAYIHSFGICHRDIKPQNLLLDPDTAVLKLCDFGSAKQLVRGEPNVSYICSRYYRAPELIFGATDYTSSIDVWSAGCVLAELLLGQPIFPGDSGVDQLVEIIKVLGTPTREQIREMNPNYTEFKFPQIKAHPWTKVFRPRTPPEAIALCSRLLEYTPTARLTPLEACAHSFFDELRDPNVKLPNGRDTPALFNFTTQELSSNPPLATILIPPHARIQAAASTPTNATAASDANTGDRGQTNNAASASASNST
Briefly: Glycogen Synthase Kinase 3β inhibition assay, radioactivity-based. How it is done: Inhibition of Glycogen Synthase Kinase 3, Activity
The GSK3, kinase activity assay utilizes a radioactivity-based format in a 96-well PCR plate with radioactive readout. The GSK3β activity was assayed in a 25 μL assay mixture containing 8 mM HEPES (pH 7.0), 250 μM ATP, 0.2 mM EDTA (pH 8), 2% DMSO, 250 ng/mL Myelin Basic Protein (MBP, Sigma M-1891), and 12 ng/mL GSK3 (Upstate Discovery, specific activity=607 nmol/min*GS2 peptide, concentration of 6.05 mg/mL). Compounds were screened for inhibition of the GSK3 P kinase activity at a concentration of 10 μM. The kinase reaction was allowed to proceed at 37° C. for 30 minutes, then the reaction was stopped by addition of 5 μL of 0.5M EDTA (pH 8).

Chain of His tagged ERK2 (P28482 whole entry): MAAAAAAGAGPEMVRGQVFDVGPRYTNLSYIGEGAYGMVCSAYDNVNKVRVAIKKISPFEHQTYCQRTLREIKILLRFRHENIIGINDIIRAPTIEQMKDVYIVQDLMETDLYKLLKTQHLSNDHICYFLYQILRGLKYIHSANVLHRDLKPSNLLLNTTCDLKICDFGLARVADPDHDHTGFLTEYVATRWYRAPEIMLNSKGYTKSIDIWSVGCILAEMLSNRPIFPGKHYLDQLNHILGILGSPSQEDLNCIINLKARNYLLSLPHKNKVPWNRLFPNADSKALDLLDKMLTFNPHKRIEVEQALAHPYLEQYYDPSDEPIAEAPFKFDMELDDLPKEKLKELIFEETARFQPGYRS

Usually inhibition stands for the percentage by which the read-out fell short of the control. Turning to `O=C1NC(=O)c2c1c1c3ccccc3[nH]c1c1c2c2ccccc2n1C1C=C[C@@H](O)C1` (mixture of isomers) [NAD006], the inhibition at 10 µM on His tagged ERK2 came out at 84.2%; in experiment [1], 18.8%; at GSK3β, 83.4%. Further, the “% Inhibition PKC” value in the experiment with PKC (rat brain) is reported as 45.48%.

Turning to `N[C@H]1C=CC(n2c3ccccc3c3c4c(c5c6ccccc6[nH]c5c32)C(=O)NC4=O)C1` (mixture of isomers) [NAD040], the inhibition at 10 µM on His tagged ERK2 turned out to be 97.8%; in experiment [1] it was 98%; on GSK3β, 69.8%. Moreover, the “% Inhibition PKC” value with PKC (rat brain) is reported as 81.34%.

Regarding `O=C1NC(=O)c2c1c1c3ccccc3[nH]c1c1c2c2ccccc2n1C1C=C[C@H](Cl)CC1` (mixture of isomers) [NAD085], the figures for the inhibition at 10 µM (on His tagged ERK2; in experiment [1]; at GSK3β) were 57.2%, 43.4% and 52.2%, respectively. In addition, the “% Inhibition PKC” value with PKC (rat brain) came to 41.98%.

Regarding `CC(=O)O[C@H]1C=CC(n2c3ccccc3c3c4c(c5c6ccccc6[nH]c5c32)C(=O)NC4=O)CC1` (mixture of isomers) [NAD106], the values for the inhibition at 10 µM (at His tagged ERK2; in experiment [1]; at GSK3β) were 53.4%, 17.1% and 25.4%, respectively. Further, in the experiment with PKC (rat brain), the “% Inhibition PKC” value is 52.00%.

With `N[C@@H]1C=CC(n2c3ccccc3c3c4c(c5c6ccccc6[nH]c5c32)C(=O)NC4=O)C1` (mixture of isomers) [NAD116], the inhibition at 10 µM on His tagged ERK2 was determined as 24.3%; on GSK3β, 18.4%. In addition, in the experiment on PKC (rat brain), the “% Inhibition PKC” value worked out at 67.47%.

In the case of `CCOC(=O)N1C(=O)c2c(c3c4ccccc4n(C4C=C[C@H](NC(C)=O)C4)c3c3[nH]c4ccccc4c23)C1=O` (mixture of isomers) [NAD117], the inhibition at 10 µM at His tagged ERK2 came to 60%; on GSK3β, 25%. Further, the “% Inhibition PKC” value with PKC (rat brain) is 68.74%.

In the case of `CC(=O)O[C@@H]1C=CC(n2c3ccccc3c3c4c(c5c6ccccc6[nH]c5c32)C(=O)NC4=O)CC1` (mixture of isomers) [NAD135], the figures for the inhibition at 10 µM (at His tagged ERK2; in experiment [1]; at GSK3β) were 43.2%, 17.3% and 60.8%, respectively. For the same compound, in the experiment on PKC (rat brain), the “% Inhibition PKC” value turned out to be 84.32%.

With `O=C1NC(=O)c2c1c1c3ccccc3[nH]c1c1c2c2ccccc2n1C1C=C[C@H](Nc2ccccc2)CC1` (mixture of isomers) [NAD148], the values for the inhibition at 10 µM (on His tagged ERK2; in experiment [1]; on GSK3β) were 41.6%, 26.5% and 54.1%, respectively. Also, the “% Inhibition PKC” value in the experiment on PKC (rat brain) is 111.91%.

In the case of `O=C1NC(=O)c2c1c1c3ccccc3[nH]c1c1c2c2ccccc2n1C1CC[C@H](O)[C@@H](O)[C@H]1O` (mixture of isomers) [NAD149], the inhibition at 10 µM on His tagged ERK2 stood at 93.3%; in experiment [1], 35.2%; on GSK3β, 94.1%. The “% Inhibition PKC” value in the experiment with PKC (rat brain) was 55.37%.

Take `CN1C(=O)c2c(c3c4ccccc4n(C4C[C@H](O)[C@@H](O)[C@H]4O)c3c3[nH]c4ccccc4c23)C1=O` (mixture of isomers) [NAD157]: the “% Inhibition PKC” value in the experiment with PKC (rat brain) turned out to be 55.37%. For the same compound, the inhibition at 10 µM at GSK3β is 20.2%.

As for `CC(=O)O[C@H]1CC(n2c3ccccc3c3c4c(c5c6ccccc6[nH]c5c32)C(=O)NC4=O)[C@H](O)[C@@H]1O` (mixture of isomers) [NAD160], the results for the inhibition at 10 µM at His tagged ERK2 and on GSK3β were 23.3% and 30.2%, respectively. Moreover, the “% Inhibition PKC” value in the experiment on PKC (rat brain) amounted to 72.37%.

With `O=C1NC(=O)c2c1c1c3ccccc3[nH]c1c1c2c2ccccc2n1C1C=C[C@H](O)C1` (mixture of isomers) [NAD162], the figures for the inhibition at 10 µM (at His tagged ERK2; in experiment [1]; on GSK3β) were 37.4%, 19.9% and 61.2%, respectively. Further, the “% Inhibition PKC” value in the experiment with PKC (rat brain) came to 58.82%.

`COc1ccc(CN2C(=O)c3c(c4c5ccccc5n(C5CCC(O)CC5)c4c4[nH]c5ccccc5c34)C2=O)cc1` (centres unmarked) [NAD133]: the “% Inhibition PKC” value in the experiment with PKC (rat brain) worked out at 102.77%.

The record behind these values is US7262215B2, “N-carbacycle monosubstituted indolocarbazoles as protein kinase inhibitors” (NAD AG, priority 2001, dated 2007).
